Results: patent US20230066946A1, “1,5-DIPHENYLPYRAZOLYL-3-OXYALKYL ACIDS AND 1-PHENYL-5-THIENYLPYRAZOLYL-3-OXYALKYL ACIDS AND THE USE THEREOF FOR CONTROL OF UNWANTED PLANT GROWTH” (Bayer Aktiengesellschaft, priority 2019, published 2023)

Legend:
[1] = test system: CYPES; experiment: Pre-emergence herbicidal action against CYPES; format: in vivo, Cyperus esculentus; details: scored visually after about 3 weeks vs untreated controls, 100% = plants have died, 0% = like control plants
Source text: (§1) Seeds of mono- and dicotyledonous weed plants are placed in plastic pots in sandy loam soil (doubly sown with one species each of mono- or dicotyledonous weed plants per pot) and covered with soil. The compounds of the invention, formulated in the form of wettable powders (WP) or as emulsion concentrates (EC), are then applied onto the surface of the covering soil as aqueous suspension or emulsion with addition of 0.5% additive at a water application rate equivalent to 600 litres per hectare. After the treatment, the pots are placed in a greenhouse and kept under good growth conditions for the trial plants. After about 3 weeks, the effect of the preparations is scored visually in comparison with untreated controls as percentages. For example, 100% activity=the plants have died, 0% activity=like control plants. [table] Tables 4.1-4.15 below show the effects of selected compounds of the general formula (I) according to Tables 1 to 3 on various harmful plants at an application rate corresponding to 1280 or 320 g/ha, which have been obtained by the aforementioned experimental method.

[2] = test system: AMARE; experiment: Pre-emergence herbicidal action against AMARE; format: in vivo, Amaranthus retroflexus; details: scored visually after about 3 weeks vs untreated controls; for Pre-emergence action at 320 g/ha against AMARE in %: 100% = plants have died, 0% = like control plants; for Pre-emergence action against AMARE in %: 1280 g/ha
In short: (§2)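 Visual percent activity (100% = plants dead, 0% = like control) scored about 3 weeks after pre-emergence treatment in greenhouse. Compounds as WP or EC, applied to covering soil surface with 0.5% additive, 600 L/ha water, at 1280 or 320 g/ha.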

[3] = test system: MATIN; experiment: Pre-emergence herbicidal action against MATIN; format: in vivo, Matricaria inodora; details: 1280 g/ha, scored visually after about 3 weeks vs untreated controls
In short: as §2

[4] = test system: PHBPU; experiment: Pre-emergence herbicidal action against PHBPU; format: in vivo, Pharbitis purpurea; details: 1280 g/ha, scored visually after about 3 weeks vs untreated controls
Source text: as §1

[5] = test system: STEME; experiment: Pre-emergence herbicidal action against STEME; format: in vivo, Stellaria media; details: 1280 g/ha, scored visually after about 3 weeks vs untreated controls
In short: as §2

[6] = test system: VERPE; experiment: Pre-emergence herbicidal action against VERPE; format: in vivo, Veronica persica; details: 320 g/ha, scored visually after about 3 weeks vs untreated controls
In short: as §2

[7] = test system: ECHCG; experiment: Post-emergence herbicidal action against ECHCG; format: in vivo, Echinochloa crus-galli; details: 1280 g/ha, post-emergence at one-leaf stage, rated visually after about 3 weeks vs untreated controls
In short: (§3)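 Weeds grown in sandy loam under greenhouse conditions were sprayed at the one-leaf stage, 2-3 weeks after sowing. Compounds were applied as WP or EC formulations in water with 0.5% additive at 600 L/ha, at 1280 or 320 g/ha. Activity was rated visually about 3 weeks later against untreated controls (0-100%).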

[8] = test system: AMARE; experiment: Post-emergence herbicidal action against AMARE; format: in vivo, Amaranthus retroflexus; details: visual rating about 3 weeks after treatment
In short: as §3

[9] = test system: MATIN; experiment: Post-emergence herbicidal action against MATIN; format: in vivo, Matricaria inodora; details: visual rating about 3 weeks after treatment
In short: as §3

[10] = test system: PHBPU; experiment: Post-emergence herbicidal action against PHBPU; format: in vivo, Pharbitis purpurea; details: 320 g/ha, visual rating about 3 weeks after treatment
In short: as §3

[11] = test system: STEME; experiment: Post-emergence herbicidal action against STEME; format: in vivo, Stellaria media; details: visual rating about 3 weeks after treatment
In short: as §3

[12] = test system: harmful plants; experiment: Pre-emergence herbicidal action, summary of Tables 4.1-4.15; format: in vivo; details: result in words
Source text: as §1, with “plants.” for “plants. [table] Tables 4.1-4.15 below show the effects of selected compounds of the general formula (I) according to Tables 1 to 3 on various harmful plants at an application rate corresponding to 1280 or 320 g/ha, which have been obtained by the aforementioned experimental method.”
Tables 4.1-4.15 below show the effects of selected compounds of the general formula (I) according to Tables 1 to 3 on various harmful plants at an application rate corresponding to 1280 or 320 g/ha, which have been obtained by the aforementioned experimental method.
For example, compounds no. I-008, I-056, I-057, I-061, I-067, I-070 and I-072 applied by the pre-emergence method have very good action (80% to 100% herbicidal action) against harmful plants such as Alopecurus myosuroides, Amaranthus retroflexus, Matricaria inodora, Polygonum convolvulus, Setaria viridis and Stellaria media at an application rate of 1.28 kg of active substance or less per hectare.

[13] = test system: harmful plants; experiment: Post-emergence herbicidal action, summary of Tables 5.1-5.16; format: in vivo; details: result in words
Description: Seeds of mono- and dicotyledonous weed plants are placed in plastic pots in sandy loam soil (twin sowing with one species each of mono- or dicotyledonous weed plants per pot), covered with soil and cultivated in a greenhouse under controlled growth conditions. 2 to 3 weeks after sowing, the test plants are treated at the one-leaf stage. The compounds of the invention, formulated in the form of wettable powders (WP) or as emulsion concentrates (EC), are applied to the green parts of the plants as aqueous suspension or emulsion with addition of 0.5% additive at a water application rate equivalent to 600 litres per hectare. After the test plants have been kept in the greenhouse under optimum growth conditions for about 3 weeks, the activity of the preparations is rated visually in comparison to untreated controls. For example, 100% activity=the plants have died, 0% activity=like control plants. Tables 5.1-5.16 below show the effects of selected compounds of the general formula (I) according to Tables 1 to 3 on various harmful plants at an application rate corresponding to 1280 or 320 g/ha, which have been obtained by the aforementioned experimental method. As the results from Tables 5.1-5.16 show, compounds of the invention have good herbicidal post-emergence efficacy against a broad spectrum of weed grasses and weeds. […] For example, compounds Nos. I-002, I-006, I-022, I-056 and I-072 applied by the post-emergence method have very good herbicidal action (80% to 100% herbicidal action) against harmful plants such as Alopecurus myosuroides, Amaranthus retroflexus, Matricaria inodora, Setaria viridis, Pharbitis purpurea and Stellaria media at an application rate of 1.28 kg of active substance or less per hectare.

[14] = test system: SETVI; experiment: Pre-emergence herbicidal action against SETVI; format: in vivo, Setaria viridis; details: 1280 g/ha, scored visually after about 3 weeks vs untreated controls
In short: as §2

[15] = test system: VERPE; experiment: Post-emergence herbicidal action against VERPE; format: in vivo, Veronica persica; details: 320 g/ha, visual rating about 3 weeks after treatment
In short: as §3

[16] = test system: ECHCG; experiment: Pre-emergence herbicidal action against ECHCG; format: in vivo, Echinochloa crus-galli; details: scored visually after about 3 weeks vs untreated controls, 100% = plants have died, 0% = like control plants
In short: as §2

[17] = test system: VIOTR; experiment: Pre-emergence herbicidal action against VIOTR; format: in vivo, Viola tricolor; details: 1280 g/ha, scored visually after about 3 weeks vs untreated controls
In short: as §2

[18] = test system: ALOMY; experiment: Post-emergence herbicidal action against ALOMY; format: in vivo, Alopecurus myosuroides; details: 1280 g/ha, post-emergence at one-leaf stage, rated visually after about 3 weeks vs untreated controls
In short: as §3

[19] = test system: AVEFA; experiment: Post-emergence herbicidal action against AVEFA; format: in vivo, Avena fatua; details: 1280 g/ha, post-emergence at one-leaf stage, rated visually after about 3 weeks vs untreated controls
Description: [table] Seeds of mono- and dicotyledonous weed plants are placed in plastic pots in sandy loam soil (twin sowing with one species each of mono- or dicotyledonous weed plants per pot), covered with soil and cultivated in a greenhouse under controlled growth conditions. 2 to 3 weeks after sowing, the test plants are treated at the one-leaf stage. The compounds of the invention, formulated in the form of wettable powders (WP) or as emulsion concentrates (EC), are applied to the green parts of the plants as aqueous suspension or emulsion with addition of 0.5% additive at a water application rate equivalent to 600 litres per hectare. After the test plants have been kept in the greenhouse under optimum growth conditions for about 3 weeks, the activity of the preparations is rated visually in comparison to untreated controls. For example, 100% activity=the plants have died, 0% activity=like control plants. Tables 5.1-5.16 below show the effects of selected compounds of the general formula (I) according to Tables 1 to 3 on various harmful plants at an application rate corresponding to 1280 or 320 g/ha, which have been obtained by the aforementioned experimental method.

[20] = test system: SETVI; experiment: Post-emergence herbicidal action against SETVI; format: in vivo, Setaria viridis; details: 1280 g/ha, post-emergence at one-leaf stage, rated visually after about 3 weeks vs untreated controls
In short: as §3

[21] = test system: POLCO; experiment: Post-emergence herbicidal action against POLCO; format: in vivo, Polygonum convolvulus; details: 320 g/ha, visual rating about 3 weeks after treatment
In short: as §3

[22] = test system: ALOMY; experiment: Pre-emergence herbicidal action against ALOMY; format: in vivo, Alopecurus myosuroides; details: scored visually after about 3 weeks vs untreated controls, 100% = plants have died, 0% = like control plants
Source text: as §1

[23] = test system: POLCO; experiment: Pre-emergence herbicidal action against POLCO; format: in vivo, Polygonum convolvulus; details: 320 g/ha, scored visually after about 3 weeks vs untreated controls
In short: as §2

Row | SMILES | Pre-emergence action at 1280 g/ha against CYPES in % [1] | Pre-emergence action at 320 g/ha against AMARE in % [2] | Pre-emergence action against AMARE in % [2] | Pre-emergence action against MATIN in % [3] | Pre-emergence action against PHBPU in % [4] | Pre-emergence action against STEME in % [5] | Pre-emergence action against VERPE in % [6] | Post-emergence action against ECHCG in % [7] | Post-emergence action against AMARE in % ([8]; 1280 g/ha) | Post-emergence action against MATIN in % ([9]; 320 g/ha) | Post-emergence action against MATIN in % ([9]; 1280 g/ha) | Post-emergence action against PHBPU in % [10] | Post-emergence action against STEME in % ([11]; 320 g/ha) | Post-emergence action against STEME in % ([11]; 1280 g/ha) | herbicidal efficacy against harmful plants in the case of pre-emergence treatment [12] | herbicidal efficacy against harmful plants when applied post-emergence [13] | Pre-emergence action against SETVI in % [14] | Post-emergence action against AMARE in % ([8]; 320 g/ha) | Post-emergence action against VERPE in % [15] | Pre-emergence action against VIOTR in % [17] | further results
1 | COC(=O)COc1nn(-c2cccc(F)c2)c(-c2cccc(F)c2)c1Cl [I-003] | 100% | 100% | 100% | 100% | 80% | 100% | 100% | 80% | 80% | 80% | 80% | 80% | 80% | 80% | good herbicidal efficacy | very good herbicidal efficacy |  |  |  |  | 
2 | COC(=O)COc1nn(-c2ccccc2F)c(-c2ccccc2)c1Cl [I-015] |  | 90% | 90% | 90% | 100% | 90% | 90% |  | 80% | 90% | 90% | 80% |  |  |  |  | 90% | 80% | 90% |  | 
3 | COC(=O)COc1nn(-c2ccccc2F)c(-c2ccccc2)c1C#N [I-022] | 100% | 100% | 100% | 90% |  | 90% | 100% | 80% | 80% | 80% | 80% |  | 80% | 80% | good herbicidal efficacy |  | 100% | 80% | 80% | 90% | Pre-emergence action at 1280 g/ha against ECHCG in % [16]: 80%; Post-emergence action against ALOMY in % [18]: 80%; Post-emergence action against AVEFA in % [19]: 80%; Post-emergence action against SETVI in % [20]: 80%; Post-emergence action against POLCO in % [21]: 80%
4 | C#Cc1c(OCC(=O)OC)nn(-c2cccc(F)c2)c1-c1cccc(F)c1 [I-069] |  | 90% | 90% | 90% | 80% | 90% |  |  | 90% |  |  | 80% |  | 80% | good herbicidal efficacy |  | 90% |  |  | 100% | Pre-emergence action at 1280 g/ha against ECHCG in % [16]: 80%
5 | CCOC(=O)COc1nn(-c2ccc(F)cc2)c(-c2ccccc2)c1Br [I-072] |  | 80% | 90% | 80% | 90% | 90% |  | 80% | 80% |  | 80% |  |  | 80% | good herbicidal efficacy | very good herbicidal efficacy | 80% |  |  | 80% | Pre-emergence action at 1280 g/ha against ALOMY in % [22]: 80%; Pre-emergence action against POLCO in % [23]: 90%; Post-emergence action against ALOMY in % [18]: 80%; Post-emergence action against SETVI in % [20]: 80%
